Measured values as given in EP0500785B1, “A HUMAN T CELL REACTIVE FELINE PROTEIN (TRFP) ISOLATED FROM HOUSE DUST AND USES THEREFOR” (IMMULOGIC PHARMACEUTICAL CORPORATION, priority 1989, dated 2002).

Tested on: TRFP primed T cell cultures
Assay: T cell proliferation assay (tritiated thymidine incorporation) of TRFP-primed T cells restimulated with allergens or peptides
Type: cell-based, human
Protocol: Peripheral blood mononuclear cells (PBMC) were purified from 60 ml of heparinized blood from cat allergic patients. PBMC were subsequently treated as described below, although in individual cases, the length of time of cultivation with IL-2 and/or IL-4 and the specific peptides used for stimulation varied.
10 ml of PBMC from patient 131 at 10^6/ml were cultured at 37°C for 7 days in the presence of 5 micrograms purified TRFP/ml RPMI-1640 supplemented with 5% pooled human AB serum. Viable cells were purified by Ficoll-Hypaque centrifugation and cultured for three weeks at 5 units recombinant human IL-2/ml and 5 units recombinant human IL-4/ml. The resting T cells were then restimulated (secondary) with 5 micrograms TRFP at 2 x 10^5/ml in the presence of irradiated (3500 Rads) autologous PBMC at a concentration of 5 x 10^5/ml for three days, purified by Ficoll-Hypaque centrifugation and grown in 5 units IL-2 and 5 units IL-4/ml for two weeks. For assay, 2 x 10^4 resting secondary T cells were restimulated (tertiary) in the presence of 5 x 10^4 irradiated (3500 Rads) autologous PBMC or 2 x 10^4 transformed B cells (20,000 Rads) with various concentrations of allergens or their fragments in a volume of 200 microliters in a 96-well round bottom assay plates for 3 days. Each well then received 1 microCurie tritiated (methyl) thymidine for 16 hours. The counts incorporated were collected onto glass fiber filters and processed for liquid scintillation counting.
Antigens used: T cell reactive feline protein (TRFP), Hollister-Stier cat epithelium skin test reagent (CST), IPC ragweed pollen extract (pollen), and synthetic peptides derived from the TRFP protein sequence (See Figures 6 and 7). Significant T cell proliferation is generally regarded as greater than 2.5 times the media control (T cells and antigen presenting cells alone).
Alternatively, PBMC were treated as follows: the primary stimulated cells were cultured in IL-2/IL-4 for two weeks. The resting T cells derived from this culture were tested in a secondary assay with some, but not all, of the above allergens. […] This type of epitope analysis has allowed the definition of T cell epitopes present in TRFP.

[1] = Chain #1 TRFP peptides, average cpm with antigen divided by cpm of T cells and antigen presenting cells alone, responding patients, SI ≥ 2.5 positive
[2] = Chain #1 TRFP peptides, cat allergic patients, average SI of all responding patients multiplied by percent of patients with a positive response
[3] = Chain #2 TRFP peptides, cat allergic patients, average SI of responding patients multiplied by percent positive
[4] = Chain #2 TRFP peptides, cat allergic patients, average of responding patients

Substance | SI [1] | PI [2] | PI [3] | SI [4]
Fel 1-2: TRFP chain 1 peptide, amino acids 1 - 17 (EICPAVKRDVDLFLTGT; UniProt P30438 23-39, looked up, fragment) | 7.4 | 311 |  | 
Fel 3-1: TRFP chain 1 peptide, amino acids 18 - 33 (PDEYVEQVAQYKALPV; UniProt P30438 40-55, looked up, fragment) | 9.4 | 638 |  | 
Fel 3-11: TRFP chain 1 peptide, amino acids 18 - 30 (PDEYVEQVAQYKA; UniProt P30438 40-52, looked up, fragment) | 10.4 | 863 |  | 
Fel 3-13: TRFP chain 1 peptide, amino acids 18 - 28 (PDEYVEQVAQY; UniProt P30438 40-50, looked up, fragment) | 11.5 | 690 |  | 
Fel 3-15: TRFP chain 1 peptide, amino acids 18 - 29 (PDEYVEQVAQYK; UniProt P30438 40-51, looked up, fragment) | 10.4 | 1040 |  | 
Fel 8-1: TRFP chain 1 peptide, amino acids 5 - 33 (AVKRDVDLFLTGTPDEYVEQVAQYKALPV; UniProt P30438 27-55, looked up, fragment) | 15.1 | 1374 |  | 
Fel 8-2: TRFP chain 1 peptide, amino acids 6 - 33 (VKRDVDLFLTGTPDEYVEQVAQYKALPV; UniProt P30438 28-55, looked up, fragment) | 15.2 | 1353 |  | 
Fel 14-1: TRFP chain 1 peptide, amino acids 23 - 36 (EQVAQYKALPVVLE; UniProt P30438 45-58, looked up, fragment) | 9.9 | 871 |  | 
Fel 14-2: TRFP chain 1 peptide, amino acids 29 - 42 (KALPVVLENARILK; UniProt P30438 51-64, looked up, fragment) | 5.6 | 336 |  | 
Fel 14-4: TRFP chain 1 peptide, amino acids 26 - 36 (AQYKALPVVLE; UniProt P30438 48-58, looked up, fragment) | 6.0 | 474 |  | 
Fel 14-5: TRFP chain 1 peptide, amino acids 27 - 36 (QYKALPVVLE; UniProt P30438 49-58, looked up, fragment) | 5.4 | 286 |  | 
Fel 15: TRFP chain 1 peptide, amino acids 44 - 60 (CVDAKMTEEDKENALSV; UniProt P30438 66-82, looked up, fragment) | 11.0 | 440 |  | 
Fel 23: TRFP chain 1 peptide, amino acids 51 - 66 (EEDKENALSVLDKIYT; UniProt P30438 73-88, looked up, fragment) | 6.6 | 343 |  | 
Fel 30-2: TRFP chain 1 peptide, amino acids 25 - 48 (VAQYKALPVVLENARILKNCVDAK; UniProt P30438 47-70, looked up, fragment) | 4.2 | 248 |  | 
Fel 30-3: TRFP chain 1 peptide, amino acids 25 - 47 (VAQYKALPVVLENARILKNCVDA; UniProt P30438 47-69, looked up, fragment) | 4.8 | 230 |  | 
Fel 30-4: TRFP chain 1 peptide, amino acids 29 - 55 (KALPVVLENARILKNCVDAKMTEEDKE; UniProt P30438 51-77, looked up, fragment) | 11.6 | 1079 |  | 
Fel 30-5: TRFP chain 1 peptide, amino acids 29 - 54 (KALPVVLENARILKNCVDAKMTEEDK; UniProt P30438 51-76, looked up, fragment) | 11.0 | 792 |  | 
Fel 30-7: TRFP chain 1 peptide, amino acids 26 - 55 (AQYKALPVVLENARILKNCVDAKMTEEDKE; UniProt P30438 48-77, looked up, fragment) | 5.3 | 339 |  | 
Fel 30-8: TRFP chain 1 peptide, amino acids 28 - 55 (YKALPVVLENARILKNCVDAKMTEEDKE; UniProt P30438 50-77, looked up, fragment) | 4.1 | 262 |  | 
Fel 31-1: TRFP chain 2 peptide, amino acids 14 - 40 (FFAVANGNELLLDLSLTKVNATEPERT; UniProt P30440 31-57, looked up, fragment) |  |  | 733 | 9.4
Fel 31-2: TRFP chain 2 peptide, amino acids 14 - 39 (FFAVANGNELLLDLSLTKVNATEPER; UniProt P30440 31-56, looked up, fragment) |  |  | 599 | 8.1
Fel 31-4: TRFP chain 2 peptide, amino acids 14 - 37 (FFAVANGNELLLDLSLTKVNATEP; UniProt P30440 31-54, looked up, fragment) |  |  | 622 | 8.4
Fel 31-5: TRFP chain 2 peptide, amino acids 14 - 36 (FFAVANGNELLLDLSLTKVNATE; UniProt P30440 31-53, looked up, fragment) |  |  | 539 | 7.6
Fel 31-6: TRFP chain 2 peptide, amino acids 15 - 40 (FAVANGNELLLDLSLTKVNATEPERT; UniProt P30440 32-57, looked up, fragment) |  |  | 295 | 4.4
Fel 31-7: TRFP chain 2 peptide, amino acids 15 - 36 (FAVANGNELLLDLSLTKVNATE; UniProt P30440 32-53, looked up, fragment) |  |  | 267 | 5.8
Fel 32-1: TRFP chain 2 peptide, amino acids 12 - 24 (DVFFAVANGNELL; UniProt P30440 29-41, looked up, fragment) |  |  | 442 | 6.6
Fel 32-2: TRFP chain 2 peptide, amino acids 14 - 24 (FFAVANGNELL; UniProt P30440 31-41, looked up, fragment) |  |  | 424 | 5.3
